This is an account of results in patent publication US11667636B2, “Modulators of Mas-related G-protein receptor X2 and related products and methods” (Escient Pharmaceuticals, Inc., priority 2020, dated 2023).

For this experiment, the target named is T1, human MRGPRX2 (Homo sapiens, UniProt Q96LB1).
T1 construct: expressed in transfected cells
T1 sequence (Q96LB1 1-330): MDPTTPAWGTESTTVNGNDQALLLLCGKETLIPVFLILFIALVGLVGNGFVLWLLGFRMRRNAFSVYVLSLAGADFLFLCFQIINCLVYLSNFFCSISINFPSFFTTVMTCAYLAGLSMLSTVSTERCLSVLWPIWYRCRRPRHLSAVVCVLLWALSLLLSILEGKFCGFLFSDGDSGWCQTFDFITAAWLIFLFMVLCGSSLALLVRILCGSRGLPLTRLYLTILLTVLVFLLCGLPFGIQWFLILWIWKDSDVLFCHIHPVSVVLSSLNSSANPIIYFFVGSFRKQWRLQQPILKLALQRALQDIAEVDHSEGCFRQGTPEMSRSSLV
Briefly: MRGPRX2 Activity: IP-One HTRF antagonist assay in CHO cells stably expressing human MRGPRX2, versus Cortistatin-14. It is filed as cell-based. Particulars: versus 0.3 uM Cortistatin-14 agonist, IP-1 HTRF, read-out: MRGPR2 Antagonist Activity. As for the experimental part: CHO cells stably transfected to express human MRGPRX2 were maintained in an incubator at 37° C. with 5% CO2 and grown in F12 (HAM) media with 10% fetal bovine serum (FBS), 1% Glutamax, 1% penicillin/streptomycin, 800 μg/mL Geneticin (G418), and 300 μg/mL Hygromycin B. Cells were plated in a 384-well assay plate at 20,000 cells per well in 12 μL of Opti-MEM and kept in an incubator overnight. On the day of the assay, compounds solubilized at 10 mM in DMSO were added as a 10-point curve (30 uM final top concentration with 1:3 serial dilutions) using a Tecan D300E digital dispenser. Agonists were diluted in assay buffer (final concentrations of 5.7 mM Tris-HCl, 43 mM NaCl, 50 mM LiCl, pH=8) and 2 μL of the agonist Cortistatin-14 (CPC Scientific, catalog CORT-002) are added to each well. Final concentrations of agonists were 0.3 μM Cortistatin-14. Final concentrations of DMSO were kept consistent across the plate. Plates were incubated in the dark for 1 hr at 37° C. and then for 1 hr at room temperature. IP-1 standards and HTRF detection reagents were added according to the IP-One-Gq Kit purchased from Cisbio (part number 62IPAPEJ) and incubated in the dark for 1 hr at room temperature. The plate was read on a Molecular Devices SpectraMax iD5 plate reader. The HTRF ratio was calculated from the raw data and graphed using GraphPad Prism to calculate an IC50 value for each compound.
The activity ranges are denoted as follows: “+++++” denotes antagonist activity <50 nM; “++++” denotes antagonist activity between 51 and 100 nM; “+++” denotes activity between 101 and 500 nM; “++” denotes activity between 501 and 1000 nM; and “+” denotes activity >1000 nM
(In general: In TR-FRET formats the signal depends on donor and acceptor labels being close together.)
Take `O=C(N[C@H]1CC[C@@H](Nc2cccc3nc(C(F)(F)F)cn23)CC1)c1cn(CC(F)F)nc1Cl` [Example 11, 3-chloro-1-(2,2-difluoroethyl)-N-((1 s,4s)-4-((2-(trifluoromethyl)imidazo[1,2-a]pyridin-5-yl)amino)cyclohexyl)-1H-pyrazole-4-carboxamide]: the IC50 was less than 50 nM. Turning to `CCc1cc(C(=O)N[C@H]2CC[C@@H](Nc3cccc4nc(C(F)(F)F)cn34)CC2)nn1CC` [2-190], the IC50 lay within 101 to 500 nM. `Cn1cc(C(=O)N[C@H]2CC[C@@H](Nc3cccc4nc(C(F)(F)F)cn34)CC2)c(C2CC2)n1` [2-191]: the IC50 is 51 to 100 nM. Consider `Cn1cc(C(=O)N[C@H]2CC[C@@H](Nc3cccc4nc(C(F)(F)F)cn34)CC2)nn1` [2-233], for which the IC50 was in the range of 101 to 500 nM.

Consider `O=C(N[C@H]1CC[C@@H](Nc2cccc3sc(C(F)(F)F)cc23)CC1)c1cc2ccccn2n1` [2-1], for which the IC50 was in the range of 51 to 100 nM. Take `CC(C)(F)Cn1cc(C(=O)N[C@H]2CC[C@@H](Nc3cccc4nc(C(F)F)cn34)CC2)c(Cl)n1` [2-257]: the IC50 is less than 50 nM. Take `O=C(N[C@H]1CC[C@@H](Nc2cccc3nc(C(F)(F)F)cn23)CC1)c1ccn2cncc2c1` [2-163]: the IC50 is less than 50 nM. In the case of `O=C(N[C@H]1CC[C@@H](Nc2cccc3nc(C(F)(F)F)cn23)CC1)c1ccc2nccn2c1` [2-165], the IC50 was less than 50 nM.

Take `O=C(N[C@H]1CC[C@@H](Nc2cccc3nc(C(F)(F)F)cn23)CC1)c1ccc(F)cc1` [2-157]: the IC50 was less than 50 nM. Turning to `Cn1cc(C(=O)N[C@H]2CC[C@@H](Nc3cccc4nc(C(F)(F)F)cn34)CC2)c2c(Cl)cccc21` [2-291], the IC50 was less than 50 nM. As to `CCn1nccc1C(=O)N[C@H]1CC[C@@H](Nc2cccc3sc(C(F)(F)F)cc23)CC1` [2-3], the IC50 is 101 to 500 nM. Next, `CC(C)n1cc(C(=O)N[C@H]2CC[C@@H](Nc3cccc4nc(C(F)(F)F)cn34)CC2)c(Cl)n1` [2-294]: less than 50 nM. As to `CCn1cc(C(=O)N[C@H]2CC[C@@H](Nc3cccc4nc(C(F)(F)F)cn34)CC2)c(Cl)n1` [2-293], the IC50 was less than 50 nM.

Regarding `O=C(N[C@H]1CC[C@@H](Nc2cccc3nc(C(F)(F)F)cn23)CC1)c1cn(CC(F)F)nc1C(F)F` [Example 8, 1-(2,2-difluoroethyl)-3-(difluoromethyl)-N-[4-[[2-(trifluoromethyl)imidazo[1,2-a]pyridin-5-yl]amino]cyclohexyl]pyrazole-4-carboxamide], the IC50 is less than 50 nM. Consider `Nc1nn(CC(F)F)cc1C(=O)N[C@H]1CC[C@@H](Nc2cccc3nc(C(F)(F)F)cn23)CC1` [Example 6, 3-amino-1-(2,2-difluoroethyl)-N-[4-[[2-(trifluoromethyl)imidazo[1,2-a]pyridin-5 yl]amino]cyclohexyl]pyrazole-4-carboxamide], for which the IC50 is less than 50 nM. In the case of `CCOc1cc(C(=O)N[C@H]2CC[C@@H](Nc3cccc4nc(C(F)(F)F)cn34)CC2)ccn1` [2-15], the IC50 fell in the range of 101 to 500 nM. In the case of `O=C(N[C@H]1CC[C@@H](Nc2cccc3nc(C(F)F)cn23)CC1)c1ccc(F)cc1Cl` [2-149], the IC50 was in the range of 101 to 500 nM. Regarding `O=C(N[C@H]1CC[C@@H](Nc2cccc3nc(C(F)(F)F)cn23)CC1)c1ccccc1NCC(F)F` [2-188], the IC50 was less than 50 nM. `O=C(N[C@H]1CC[C@@H](Nc2cccc3nc(C(F)(F)F)cn23)CC1)c1cn(CC(F)(F)F)nc1C(F)F` [Example 9, 3-(difluoromethyl)-1-(2,2,2-trifluoroethyl)-N-[4-[[2-(trifluoromethyl)imidazo[1,2-a]pyridin-5-yl]amino]cyclohexyl]pyrazole-4-carboxamide]: the IC50 is less than 50 nM. With `CC(C)S(=O)(=O)Nc1ccc(C(=O)N[C@H]2CC[C@@H](Nc3cccc4nc(C(F)(F)F)cn34)CC2)cc1` [2-203], the IC50 was less than 50 nM.

For `O=C(N[C@H]1CC[C@@H](Nc2cccc3nc(C(F)(F)F)cn23)CC1)c1cccc2[nH]ccc12` [2-232], the IC50 is less than 50 nM. On to `O=C(N[C@H]1CC[C@@H](Nc2cccc3nc(C(F)F)cn23)CC1)c1ccc(C(F)F)cc1` [2-285], for which the IC50 is 51 to 100 nM. As for `O=C(N[C@H]1CC[C@@H](Nc2cccc3nc(C(F)(F)F)cn23)CC1)c1c[nH]nc1Cl` [2-176], the IC50 was less than 50 nM. Regarding `COc1ccc(C(=O)N[C@@H]2CCC[C@H](Nc3cc(Cl)cc4nc(C(F)(F)F)cn34)C2)cc1` [1-30], the IC50 was 51 to 100 nM. On to `COc1ccc(C(=O)N[C@H]2CC[C@@H](Nc3cccc4nc(C(F)(F)F)sc34)CC2)cc1` [1-22], for which the IC50 lay in the range of 51 to 100 nM. Turning to `COc1ccc(C(=O)N[C@@H]2CCC[C@H](Nc3cccc4sc(C(C)=O)cc34)C2)cc1` [1-4], the IC50 is greater than 1000 nM. Turning to `O=C(N[C@H]1CC[C@@H](Nc2cccc3nc(C(F)(F)F)cn23)CC1)c1c[nH]c2ccccc12` [2-201], the IC50 was less than 50 nM.

With `O=C(N[C@H]1CC[C@@H](Nc2cccc3nc(C(F)(F)F)cn23)CC1)c1cn(C(F)F)nc1Cl` [2-297], the IC50 is less than 50 nM.

For the molecule `Cn1ncc(C(=O)N[C@H]2CC[C@@H](Nc3cccc4nc(C(F)(F)F)cn34)CC2)c1C1CC1` [2-245], the IC50 fell in the range of 101 to 500 nM.

Consider `O=C(N[C@H]1CC[C@@H](Nc2cccc3nc(C(F)F)cn23)CC1)c1cn(C(F)F)nc1C(F)F` [2-220], for which the IC50 was less than 50 nM. As for `NS(=O)(=O)c1ccc(C(=O)N[C@H]2CC[C@@H](Nc3cccc4nc(C(F)(F)F)cn34)CC2)cc1` [2-204], the IC50 is less than 50 nM.

With `COc1ccc(C(=O)N[C@H]2CC[C@@H](Nc3cc(C)cc4nc(C(F)(F)F)cn34)CC2)cc1` [1-23], the IC50 lay in the range of 101 to 500 nM. On to `O=C(N[C@H]1CC[C@@H](Nc2cccc3nc(C(F)F)cn23)CC1)c1cccc2cn[nH]c12` [2-193], for which the IC50 is less than 50 nM. As to `Cc1n[nH]c2c(C(=O)N[C@H]3CC[C@@H](Nc4cccc5nc(C(F)(F)F)cn45)CC3)ccnc12` [2-247], the IC50 fell in the range of 101 to 500 nM. The result for `O=C(N[C@H]1CC[C@@H](Nc2cccc3nc(C(F)(F)F)cn23)CC1)c1n[nH]c2ccccc12` [2-9] reads 101 to 500 nM.

As for `CN(C)c1ccc(C(=O)N[C@H]2CC[C@@H](Nc3cccc4nc(C(F)(F)F)cn34)CC2)cc1` [2-158], the IC50 was less than 50 nM.

On to `O=C(N[C@H]1CC[C@@H](Nc2cccc3nc(C(F)(F)F)cn23)CC1)c1ccnc2cn[nH]c12` [2-126], for which the IC50 is less than 50 nM. On to `O=C(N[C@H]1CC[C@@H](Nc2cccc3nc(C(F)(F)F)cn23)CC1)c1ccc(-n2cnnn2)cc1` [2-202], for which the IC50 is less than 50 nM. Turning to `O=C(N[C@H]1CC[C@@H](Nc2cccc3nc(C(F)F)cn23)CC1)c1ccnc2cn[nH]c12` [2-253], the IC50 is less than 50 nM.

For `O=C(N[C@H]1CC[C@@H](Nc2cccc3nc(C(F)F)cn23)CC1)c1cccc2[nH]c(C(F)F)nc12` [2-151], the IC50 was 101 to 500 nM. The result for `O=C(N[C@H]1CC[C@@H](Nc2cccc3nc(C(F)(F)F)cn23)CC1)c1cncc2cn[nH]c12` [2-241] reads 101 to 500 nM; that for `O=C(N[C@H]1CC[C@@H](Nc2cccc3nc(C(F)(F)F)cn23)CC1)c1ccn(CC(F)F)n1` [2-135], less than 50 nM. As to `O=C(N[C@H]1CC[C@@H](Nc2cccc3nc(C(F)(F)F)sc23)CC1)c1ccc(F)cc1` [1-19], the IC50 was in the range of 51 to 100 nM. For `O=C(N[C@H]1CC[C@@H](Nc2cccc3nc(C(F)(F)F)cn23)CC1)c1c[nH]nc1C1CC1` [2-141], the IC50 is less than 50 nM. As for `Cc1cc(C(=O)N[C@H]2CC[C@@H](Nc3cccc4nc(C(F)F)cn34)CC2)cn1C(F)F` [2-221], the IC50 was less than 50 nM.

For the molecule `CNc1ccccc1C(=O)N[C@H]1CC[C@@H](Nc2cccc3nc(C#N)cn23)CC1` [2-262], the IC50 was 101 to 500 nM. As for `CN(C)c1ccc(C(=O)N[C@H]2CC[C@@H](Nc3cccc4nc(C(F)(F)F)cn34)CC2)c(F)c1` [2-159], the IC50 was 51 to 100 nM. On to `O=C(N[C@H]1CC[C@@H](Nc2cccc3nc(C(F)(F)F)cn23)CC1)c1ccncc1` [2-162], for which the IC50 lay in the range of 101 to 500 nM. Take `CNc1ccc(C(=O)N[C@H]2CC[C@@H](Nc3cccc4nc(C(F)F)cn34)CC2)cc1` [2-195]: the IC50 is less than 50 nM.

As to `CN(CC(F)F)c1ccc(C(=O)N[C@H]2CC[C@@H](Nc3cccc4nc(C(F)(F)F)cn34)CC2)cc1` [2-181], the IC50 was less than 50 nM. Regarding `Cc1n[nH]cc1C(=O)N[C@H]1CC[C@@H](Nc2cccc3nc(C(F)(F)F)cn23)CC1` [2-138], the IC50 was less than 50 nM. In the case of `O=C(N[C@H]1CC[C@@H](Nc2cccc3nc(C(F)(F)F)cn23)CC1)c1ccc(N2CCOCC2)cc1` [2-8], the IC50 is less than 50 nM.
